Among the test systems are NCI-H460; SN12C; IGROV-1; NCI/ADR-RES; SK-MEL-28; UACC-257; HOP-62; MOLT-4; ACHN; NCI-H226; U-251; HCT-116; SK-MEL-5; SF-295; SR; SK-MEL-2; SF-268; HL-60; HCC 2998.
What all share (assay): NCI-60 cell line screen, 48 h

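Five concentrations, 48 hours, 96-well plates. Abbreviation: GI50, concentration required for 50% inhibition of growth.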 Calls of active or inactive are those of the source. Cut-off read from the data, not from the text of the source: active = GI50 up to about 1.1 µM and inactive = higher.

Data on eleven molecules can be found in ChEMBL document CHEMBL1201862, “PubChem BioAssay data set” (2004).

In the case of `c1cncc(CNCCN2CCNCC2)c1`, the GI50 in the test on NCI-H460, in the test on SN12C, in the test with IGROV-1, in the test on NCI/ADR-RES, in the test on SK-MEL-28 and with UACC-257 was > 100 µM (inactive) in each case. The GI50 with HOP-62, with MOLT-4, in the test with ACHN, with NCI-H226, in the test with U-251 and in the test with HCT-116 was > 100 µM (inactive) in each case. Moreover, the GI50 with SK-MEL-5, with SF-295, with SR, in the test on SK-MEL-2 and in the test with SF-268 was > 100 µM (inactive) throughout.
With `CC(=O)O[C@]12CCCCCC1C1(O)C(O)CCC[C@H]12` (stereo partly drawn), the GI50 in the test on NCI-H460, in the test on SN12C, in the test on SK-MEL-28, in the test on UACC-257, in the test on HOP-62 and in the test with MOLT-4 was > 100 µM (inactive) each time. Moreover, the GI50 in the test with ACHN, in the test with NCI-H226, in the test on U-251, in the test with HCT-116, in the test on HL-60 and in the test with SK-MEL-5 was > 100 µM (inactive) in each case. Further, the GI50 in the test with SF-295, with SR, in the test with SK-MEL-2 and in the test with SF-268 was > 100 µM (inactive) throughout.
`O=C1CCC(c2ccccc2)C(O)(C(=O)O)C1` (stereo not drawn): the GI50 in the test with HCC 2998, in the test on NCI-H460, with SN12C, in the test on IGROV-1, with SK-MEL-28 and in the test on UACC-257 was > 100 µM (inactive) each time. Further, the GI50 in the test on HOP-62, in the test with MOLT-4, in the test on ACHN, with NCI-H226, in the test with U-251 and with HCT-116 was > 100 µM (inactive) in each case. The GI50 with HL-60, with SK-MEL-5, in the test with SF-295, with SR, in the test on SK-MEL-2 and in the test on SF-268 was > 100 µM (inactive) throughout.
For `COC1=CC(=O)C(O)=C(CC2(C)C(C)CCC3(C)C2CCCC3(C)C)C1=O` (stereo not drawn), the GI50 is 3.6 µM (inactive) in the test on HCC 2998; 1.88 µM (inactive) with NCI-H460; 3.7 µM (inactive) in the test with SN12C; 5.2 µM (inactive) in the test on IGROV-1; 4.43 µM (inactive) with SK-MEL-28; 3.84 µM (inactive) in the test with UACC-257. Besides, the GI50 in the test with HOP-62 was 3.64 µM (inactive); with MOLT-4, 2.4 µM (inactive); in the test with ACHN it was 3.89 µM (inactive); in the test on NCI-H226, 2.77 µM (inactive); in the test with U-251, 2.44 µM (inactive); with HCT-116, 5.12 µM (inactive). For the same molecule, the GI50 was 2.58 µM (inactive) with HL-60; 3.76 µM (inactive) in the test on SK-MEL-5; 2.89 µM (inactive) with SF-295; 3.11 µM (inactive) with SR; 3.06 µM (inactive) in the test on SK-MEL-2; 4.37 µM (inactive) in the test with SF-268.
As to `O=C(Nc1cccc(Cc2cccc(NC(=O)c3ccccc3)c2)c1)c1ccccc1`, the GI50 in the test with HCC 2998 was > 100 µM (inactive); with NCI-H460 it was 36.1 µM (inactive); in the test with SN12C, 19.5 µM (inactive); with IGROV-1 it was 47.8 µM (inactive); with SK-MEL-28, 41.7 µM (inactive); in the test on UACC-257, 29.8 µM (inactive). The GI50 is 22 µM (inactive) in the test on HOP-62; > 100 µM (inactive) in the test with MOLT-4; 28.2 µM (inactive) in the test with ACHN; 29 µM (inactive) in the test with NCI-H226; 20.1 µM (inactive) in the test with U-251; 50.6 µM (inactive) in the test with HCT-116. Besides, the GI50 in the test with HL-60 was > 100 µM (inactive); with SK-MEL-5, 25.1 µM (inactive); in the test with SF-295 it was 16.5 µM (inactive); in the test with SR, > 100 µM (inactive); in the test with SK-MEL-2, 52.4 µM (inactive); in the test with SF-268 it was 34 µM (inactive).
As for `CC(=O)/C(=C\c1cccc([N+](=O)[O-])c1)C(=O)Nc1ccccc1C`, the GI50 was 75.5 µM (inactive) with HCC 2998; > 100 µM (inactive) in the test on NCI-H460; > 100 µM (inactive) in the test with SN12C; > 100 µM (inactive) with IGROV-1; > 100 µM (inactive) with SK-MEL-28; > 100 µM (inactive) in the test on UACC-257. In addition, the GI50 was > 100 µM (inactive) in the test with HOP-62; 39.5 µM (inactive) in the test with MOLT-4; > 100 µM (inactive) with ACHN; > 100 µM (inactive) in the test with NCI-H226; 91.2 µM (inactive) with U-251; 57.3 µM (inactive) in the test on HCT-116. Moreover, the GI50 was 20.2 µM (inactive) in the test with HL-60; > 100 µM (inactive) with SK-MEL-5; > 100 µM (inactive) in the test with SF-295; 33.6 µM (inactive) with SR; > 100 µM (inactive) in the test with SK-MEL-2; > 100 µM (inactive) in the test with SF-268.
On to `CC1(C)C=N[N+]2(C)C3C=CC(CC3)C12` (stereo not drawn), for which the GI50 in the test with HCC 2998, with NCI-H460, in the test on SN12C, with IGROV-1, in the test with SK-MEL-28 and in the test on UACC-257 was > 100 µM (inactive) in each case. Besides, the GI50 in the test on HOP-62, in the test with MOLT-4, with ACHN, with NCI-H226, in the test with U-251 and with HCT-116 was > 100 µM (inactive) throughout. The GI50 in the test on HL-60, in the test on SK-MEL-5, with SF-295, with SR, in the test with SK-MEL-2 and with SF-268 was > 100 µM (inactive) throughout.
For `COC(=O)C1C2CC3C(OC(=O)C31)C2I` (stereo not drawn), the GI50 in the test with HCC 2998 is > 100 µM (inactive); with NCI-H460 it was > 100 µM (inactive); in the test on SN12C, > 100 µM (inactive); with IGROV-1, > 100 µM (inactive); in the test on SK-MEL-28, > 10 µM (inactive); in the test on UACC-257, > 100 µM (inactive). For the same molecule, the GI50 in the test on HOP-62, in the test on MOLT-4, in the test on ACHN, in the test with NCI-H226, in the test on U-251 and in the test on HCT-116 was > 100 µM (inactive) in each case. Besides, the GI50 in the test on HL-60, with SK-MEL-5, in the test with SF-295, with SR, with SK-MEL-2 and in the test on SF-268 was > 100 µM (inactive) throughout.
As to `O=C(OCN1C(=O)C2C3C=CC(C2C1=O)C1C2C(=O)N(COC(=O)C4CCCN4)C(=O)C2C31)C1CCCN1` (stereo not drawn), the GI50 is > 100 µM (inactive) in the test on HCC 2998; 22.6 µM (inactive) in the test with NCI-H460; > 72.3 µM (inactive) in the test on SN12C; > 91 µM (inactive) in the test on IGROV-1; > 83.9 µM (inactive) with SK-MEL-28; > 79.4 µM (inactive) in the test on UACC-257. The GI50 in the test on HOP-62 is > 100 µM (inactive); with MOLT-4 it was 32.3 µM (inactive); in the test on ACHN, > 50.5 µM (inactive); in the test with NCI-H226, > 100 µM (inactive); with U-251, > 45.8 µM (inactive); with HCT-116 it was 28.8 µM (inactive). Moreover, the GI50 with HL-60 is 22.1 µM (inactive); in the test on SK-MEL-5 it was 62.5 µM (inactive); in the test on SF-295 it was > 82.6 µM (inactive); in the test with SR, < 0.01 µM (active); in the test with SK-MEL-2, > 31.6 µM (inactive); with SF-268, > 51.3 µM (inactive).
Take `O=C(O)CNc1cc(-c2ccccc2)nc(NCC(=O)O)n1`: the GI50 in the test on HCC 2998 is > 100 µM (inactive); with NCI-H460 it was > 100 µM (inactive); with SN12C, > 100 µM (inactive); in the test on IGROV-1, > 100 µM (inactive); in the test on SK-MEL-28, 49.5 µM (inactive); in the test on UACC-257, > 100 µM (inactive). The GI50 in the test on HOP-62, with MOLT-4, in the test with ACHN, in the test on NCI-H226, in the test with U-251 and in the test with HCT-116 was > 100 µM (inactive) throughout. In addition, the GI50 with HL-60, in the test on SK-MEL-5, in the test on SF-295, with SR and in the test with SK-MEL-2 was > 100 µM (inactive) each time.
Regarding `O=S(=O)(O)C(O)/C=C/c1ccccc1` (stereo not drawn), the GI50 with HCC 2998, with SN12C, in the test with IGROV-1, in the test on SK-MEL-28, with UACC-257 and with HOP-62 was > 100 µM (inactive) in each case. For the same molecule, the GI50 was > 100 µM (inactive) with MOLT-4; > 100 µM (inactive) in the test with ACHN; > 100 µM (inactive) in the test on NCI-H226; > 100 µM (inactive) with U-251; 78.5 µM (inactive) with HCT-116; > 100 µM (inactive) in the test on HL-60. Further, the GI50 was > 100 µM (inactive) with SK-MEL-5; > 100 µM (inactive) with SF-295; 26.6 µM (inactive) with SR; > 100 µM (inactive) in the test with SK-MEL-2; > 100 µM (inactive) in the test with SF-268.
